Data reported in patent US8071654B2, “Inhibitors of thromboxane formation and action” (priority 2000, dated 2011).

Legend:
TxB2 formation = experiment: metabolism of [3H]-PGH2 to TxB2 by human platelets, TLC; assay type: cell-based; conditions: two doses of PBT-3, TLC profile
Procedure: 0.5 ml of platelet suspension was added to siliconized glass tubes (four at a time) and heated with magnetic stirring to 37° for 1 min in a platelet aggregometer (PAP-4C). Either vehicle alone (ethanol, 1 μl) or hepoxilin analog was then added, followed two min later by agonist (collagen: 2 μg; PGH2: 100 ng/0.5 ml; U46619: 10 ng/0.5 ml or I-BOP: 2 ng/0.5 ml). The response was recorded for the next 5 min. In experiments where analysis of TxB2 and HHT were to be made by HPLC, the platelet suspension at the end of the experiment was diluted with ethyl acetate, 100 ng of prostaglandin B1 was added as internal standard, and the mixture was acidified to pH 3 with 0.1 N HCl. After centrifugation, the organic layer was separated, washed twice with water to neutrality, and evaporated to dryness. Half of the sample was taken and was resuspended in 1 ml ethyl acetate containing 20 μg ADAM reagent, and was left in the dark for 2 h (38). […] In experiments where the conversion of tritiated PGH2 was to be monitored, the procedure described above was repeated with tritiated PGH2 instead of unlabeled PGH2. After extraction of the sample as described above, the radiolabeled compounds were analyzed by TLC. Dose response curves for varying amounts of test compounds were generated and the data expressed as % inhibition of collagen-induced platelet aggregation. […]

TP receptor = target: T1, TP receptor (Homo sapiens, UniProt P21731); experiment: platelet aggregation evoked by the TxA2 mimic U46619; assay type: cell-based
T1 construct: endogenous in cells; host or cells: washed human platelets
T1 sequence (P21731 1-343): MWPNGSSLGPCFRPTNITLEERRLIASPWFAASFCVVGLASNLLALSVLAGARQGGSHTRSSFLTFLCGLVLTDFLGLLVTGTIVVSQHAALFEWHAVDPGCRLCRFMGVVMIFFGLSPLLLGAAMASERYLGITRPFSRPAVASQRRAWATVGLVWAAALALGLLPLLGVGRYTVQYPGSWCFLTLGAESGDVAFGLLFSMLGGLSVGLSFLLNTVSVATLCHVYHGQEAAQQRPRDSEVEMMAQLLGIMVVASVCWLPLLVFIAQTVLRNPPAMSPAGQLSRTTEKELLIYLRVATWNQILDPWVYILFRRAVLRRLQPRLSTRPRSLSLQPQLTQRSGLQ
Procedure: Venous blood was obtained from healthy human subjects who had not taken NSAID's for at least two weeks. Blood was drawn into plastic syringes containing ACD. It was immediately centrifuged at 23° at 200×g for 15 min. The platelet rich plasma was transferred into fresh plastic tubes and centrifuged at 400×g for 5 min. The supernatant was discarded and the platelet sediment was resuspended in fresh medium containing NaCl (137 mM), KCl (1 mM), NaH2PO4, glucose (5.5 mM), HEPES (20 mM) and CaCl2 (1 mM) and allowed to stand at room temperature for 30 min. A platelet count was made, which determined the volume of platelet suspension needed to make up 350×10^6 cells for each measurement. The aliquot was diluted with medium to make 0.5 ml/assay/cuvette. Appropriate calibration of the aggregometer (PAP-4C) for 0% and 100% transmission was carried out through the use of a sample of platelet suspension and cell-free medium (37).
0.5 ml of platelet suspension was added to siliconized glass tubes (four at a time) and heated with magnetic stirring to 37° for 1 min in a platelet aggregometer (PAP-4C). Either vehicle alone (ethanol, 1 μl) or hepoxilin analog was then added, followed two min later by agonist (collagen: 2 μg; PGH2: 100 ng/0.5 ml; U46619: 10 ng/0.5 ml or I-BOP: 2 ng/0.5 ml). The response was recorded for the next 5 min. In experiments where analysis of TxB2 and HHT were to be made by HPLC, the platelet suspension at the end of the experiment was diluted with ethyl acetate, 100 ng of prostaglandin B1 was added as internal standard, and the mixture was acidified to pH 3 with 0.1 N HCl. After centrifugation, the organic layer was separated, washed twice with water to neutrality, and evaporated to dryness. Half of the sample was taken and was resuspended in 1 ml ethyl acetate containing 20 μg ADAM reagent, and was left in the dark for 2 h (38). The solvent was then evaporated and the residue was acetylated with a solution of pyridine/acetic anhydride (3/1, v/v) during 16 h at 23°. The reagents were evaporated to dryness and the residue was resuspended in acetonitrile/water for HPLC analysis. In experiments where the conversion of tritiated PGH2 was to be monitored, the procedure described above was repeated with tritiated PGH2 instead of unlabeled PGH2. After extraction of the sample as described above, the radiolabeled compounds were analyzed by TLC. Dose response curves for varying amounts of test compounds were generated and the data expressed as % inhibition of collagen-induced platelet aggregation. Each point was investigated 5 times and statistical analysis of the data was carried out using Macintosh Statview statistical software.

platelet TP receptor = target: T2, platelet TP receptor (Homo sapiens, UniProt P21731); experiment: binding of 125I-BOP to platelets
T2 construct: endogenous in cells; host or cells: washed human platelets
T2 sequence (P21731 1-343): T1 sequence (P21731 1-343)
Procedure: Washed platelets were prepared as described above, except that the platelet suspension was made up at a concentration of 10×10^6 cells/0.5 ml. The binding assay involved the addition of radioligand (30,000 cpm ^125I-BOP) to all tubes in triplicate, and either various doses of unlabeled I-BOP (10^−9-10^−7 M), PBT-3 (10^−9-10^−7 M) or U46619 (10^−9-10^−7 M) in 1 μl ethanol. Additional tubes containing excess unlabeled I-BOP were included to assess the extent of non-specific binding.

CCCCC/C=C\CC1CC1[C@@H](O)/C=C\C/C=C\CCCC(=O)OC (stereo partly drawn) [PBT-3, 10(S)-hydroxy-11,12-cyclopropyl-eicosa-5Z,8Z,14Z-trienoic acid methyl ester]
inhibition of formation of tritiated TxB2 from [3H]-PGH2 (TxB2 formation): inhibitory action | effect on U46619-induced aggregation in aspirin-treated platelets (TP receptor; PBT-3 added after aspirin, before U46619): blockade of the aggregation | IC50 (TP receptor; U46619 10 ng/0.5 ml, read-out: IC50 for inhibition of aggregation evoked by U46619): 0.7 µM | inhibition of aggregation evoked by U46619 (TP receptor; dose of 1 μg): inhibited the aggregation | fold less active than I-BOP in competing with 125I-BOP binding (platelet TP receptor): about 16 fold | IC50 (platelet TP receptor; 10×10^6 cells/0.5 ml, read-out: IC50 for competition with 125I-BOP binding to platelets): 0.0081 µM
